Reference: patent US20250009743A1, “METHODS OF TREATING CANCERS USING STING AGONISTS” (Dana-Farber Cancer Institute, Inc., priority 2021, published 2025)

What was measured:
[1] = test system: BP-sgControl and BP-sgSTING cells; experiment: CellTiter-Glo cell viability of BP-sgControl and BP-sgSTING cells; type: cell-based, mouse; conditions: effect of loss of tumor cell-intrinsic STING; three days; FIG. 11B
Protocol: Tumor cells were seeded in 96-well plates at a density of 5000 cells per well and allowed to adhere overnight. Cells were then treated for 72 hours with indicated drugs at the concentrations shown. Cell viability was measured using CellTiter-Glo® 2.0 Cell Viability Assay (Promega, #G9242) according to the manufacturer's instruction. Growth inhibition was calculated by comparing the […] of drug-treated wells to that of untreated controls 1 set at 100%. Dose response curves and IC50 values were generated using a non-linear regression model in GraphPad Prism 8.

PBM-R tumor cells = experiment: γ-H2AX flow cytometry in PBM-R cells; type: cell-based, mouse; conditions: 1 μM olaparib 24 hours
Protocol: Analysis of p-STAT3 and γ-H2AX (p-HA2X-Ser139) was performed according to a two-step protocol for intracellular phosphorylated signaling proteins (Thermo Fisher). Briefly, cells were incubated with LIVE/DEAD Fixable Aqua Dead Cell Stain for 30 min. After washing, cells were suspended in 100 μl PBS and then fixed by adding an equal volume of IC Fixation Buffer (CAT #00-822-49, Thermo Fisher) directly to cells and incubated at room temperature for 20 min followed by fixing with ice-cold 90% methanol in PBS for 30 min. The fixed cells were blocked and stained with p-STAT3 or γ-H2AX antibodies for flow cytometry analysis as described above.

BP-sgControl tumors = experiment: BP-sgControl tumor growth and survival in FVB mice; type: in vivo, mouse; conditions: DMXAA 10 mg/kg i.p. weekly; olaparib 50 mg/kg i.p. q.d.; FIG. 11G
Protocol: Primary mammary tumor cells for orthotopic injection were resuspended in serum-free DMEM containing 40% matrigel (Corning). 5×10^5 tumor cells in a total volume of 100 μL were injected orthotopically into the thoracic mammary fat pads of 8-week-old female FVB/NJ mice (The Jackson Laboratory). Tumor growth was examined by measuring the greatest longitudinal diameter (length) and the greatest transverse diameter (width) with digital calipers, and tumor volume was calculated by use of the modified ellipsoid formula (0.52×length×width2). Tumors were measured 2-3 times a week. All tumor measurements within single cohorts were performed by the same researcher. Tumor-bearing mice were randomized prior to start of treatment. Drug treatments were started when mean tumor volumes approximated 50-100 mm3. Mice were euthanized by CO2 inhalation when tumor volumes met humane endpoints described in the IACUC (20 mm diameter) protocols or upon severe health deterioration.
Olaparib (MedChem, #HY-10162) was prepared by diluting 100 mg/l mL stocks in DMSO with 10% (2-Hydroxypropyl)-β-cyclodextrin (HPCD, MedChem, #101103) in PBS and administered immediately after drug preparation by intraperitoneal (i.p.) injection at a dose of 50 mg/kg body weight daily. DMXAA (Sigma, #D5817) was reconstituted at 10 mg/mL in 7.5% NaHCO3(Gibco). […]

[2] = test system: ID8-Brca1^−/− tumor cells in WT and STING^−/− mice; experiment: Macrophages and myeloid DCs in WT and STING^−/− mice injected with ID8-Brca1^−/− tumor cells; type: in vivo, mouse; conditions: 24 h treatment; FIG. 21K, FIG. 22D
Protocol: Tumors were chopped and digested in collagenase buffer as described previously (Ding et al., 2018 Cell Rep 25, 2972-2980.e2975). Single cell suspensions of tumor and ascites were obtained by filtering through 70 um strainers and treated with 1× eBioscience RBC lysis buffer (Thermo Fisher) before staining. Single cells suspensions were incubated with LIVE/DEAD Fixable Aqua Dead Cell Stain (Life Technologies, Cat #L34965) for 30 min and then blocked with anti-CD16/32 (Biolegend, clone 93) for 20 min on ice. Samples were then incubated with appropriate antibodies for 30 min on ice. Foxp3 staining buffer set (eBioscience, Cat #00-5523-00) was applied for intracellular markers staining. For the intracellular cytokine analysis, cells were stimulated with Leukocyte Activation Cocktail (BD Biosciences, Cat #550583) at 37° C. for 4-6 hours prior to FACS staining. […] Flow cytometry was performed on an LSRII (BD Biosciences) or Fortessa HTS (BD Biosciences) at DFCI Flow Cytometry Core, and all the data were analyzed using FlowJo software.

O=C(c1cc(Cc2n[nH]c(=O)c3ccccc23)ccc1F)N1CCN(C(=O)C2CC2)CC1 [olaparib]
sensitivity to olaparib in vitro (cell viability) [1]: did not affect sensitivity | DNA damage (γ-H2AX) (PBM-R tumor cells; PBM-R3 cells): a little DNA damage signaling | DNA damage (γ-H2AX) (PBM-R tumor cells; PBM-R tumor cells): significantly increased DNA damage

Cc1ccc2c(=O)c3cccc(CC(=O)O)c3oc2c1C [DMXAA, 5,6-dimethyl-xanthenone-4-acetic acid]
BP-sgControl tumor growth (BP-sgControl tumors): no significant impact

COc1cc2cc(C(=O)CCC(=O)O)sc2cc1OC [MSA-2]
myeloid DC activation and TAM repolarization in WT mice [2]: successfully activated myeloid DCs and repolarized M2-like TAM to M1-like status
